Results reported in ChEMBL document CHEMBL3885881, “DrugMatrix”.

Species: Rattus norvegicus
Assay: DrugMatrix - Regimen: Daily Repeat
Assay type: toxicity, organism-based, Sprague-Dawley
Set-up: regimen Daily Repeat, gender Male, age 6-8 weeks
Conditions: in vivo, po, route oral GAVAGE, vehicle 100 % WATER; for BASOPHIL / EOSINOPHIL / ERYTHROCYTE COUNT / HEMATOCRIT / HEMOGLOBIN / LEUKOCYTE COUNT / LYMPHOCYTE / MEAN CORPUSCULAR HEMOGLOBIN / MEAN CORPUSCULAR HEMOGLOBIN CONCENTRATION / MEAN CORPUSCULAR VOLUME / MONOCYTE / NEUTROPHIL / PLATELET COUNT: tissue Blood; for ALANINE AMINOTRANSFERASE / ALBUMIN / ALKALINE PHOSPHATASE / ASPARTATE AMINOTRANSFERASE / BLOOD UREA NITROGEN / CARBON DIOXIDE / CHLORIDE / CHOLESTEROL / CREATINE PHOSPHOKINASE / CREATININE / GLUCOSE / LACTATE DEHYDROGENASE / LIPASE / PHOSPHORUS / POTASSIUM / SODIUM / TOTAL BILIRUBIN / TOTAL PROTEIN / URIC ACID: tissue Plasma
[1] = 0 mg/kg, 96 h, dose level Control, time 4 day
[2] = 0 mg/kg, […], dose level Control, time 6 day
[3] = 0 mg/kg, […], dose level Control, time 14 day
[4] = 4000 mg/kg, 96 h, dose level High, time 4 day
[5] = 4000 mg/kg, […], dose level High, time 6 day
[6] = 4000 mg/kg, […], dose level High, time 14 day

## CC(C)=O [ACETONE]
[1]
  BASOPHIL: 0.47%
  EOSINOPHIL: 0.58%
  ERYTHROCYTE COUNT: 6.84 x10E6/uL
  HEMATOCRIT: 44.27%
  HEMOGLOBIN: 14.08 G/DL
  LEUKOCYTE COUNT: 13.39 x10E3/uL
  LYMPHOCYTE: 83.57%
  MEAN CORPUSCULAR HEMOGLOBIN: 20.57 pg
  MEAN CORPUSCULAR HEMOGLOBIN CONCENTRATION: 31.77 G/DL
  MEAN CORPUSCULAR VOLUME: 64.68 fL
  MONOCYTE: 1.92%
  NEUTROPHIL: 12.95%
  PLATELET COUNT: 1533.67 x10E3/uL
  ALANINE AMINOTRANSFERASE: 28.17 u/L
  ALBUMIN: 3.82 G/DL
  ALKALINE PHOSPHATASE: 354.33 u/L
  ASPARTATE AMINOTRANSFERASE: 73.83 u/L
  BLOOD UREA NITROGEN: 16 mg/dL
  CARBON DIOXIDE: 27.17 mmol/L
  CHLORIDE: 104.83 MEQ/L
  CHOLESTEROL: 83.33 mg/dL
  CREATINE PHOSPHOKINASE: 288 u/L
  CREATININE: 0.33 mg/dL
  GLUCOSE: 181.33 mg/dL
  LACTATE DEHYDROGENASE: 173.17 u/L
  LIPASE: 17.67 u/L
  PHOSPHORUS: 11.5 mg/dL
  POTASSIUM: 6.8 MEQ/L
  SODIUM: 147 MEQ/L
  TOTAL BILIRUBIN: 0.35 mg/dL
  TOTAL PROTEIN: 6.35 G/DL
  URIC ACID: 1.55 mg/dL
[2]
  BASOPHIL: 0.33%
  EOSINOPHIL: 0.85%
  ERYTHROCYTE COUNT: 6.98 x10E6/uL
  HEMATOCRIT: 38.58%
  HEMOGLOBIN: 14.25 G/DL
  LEUKOCYTE COUNT: 11.01 x10E3/uL
  LYMPHOCYTE: 85.07%
  MEAN CORPUSCULAR HEMOGLOBIN: 20.47 pg
  MEAN CORPUSCULAR HEMOGLOBIN CONCENTRATION: 31.45 G/DL
  MEAN CORPUSCULAR VOLUME: 64.9 fL
  MONOCYTE: 1.9%
  NEUTROPHIL: 11.42%
  PLATELET COUNT: 1289.67 x10E3/uL
  ALANINE AMINOTRANSFERASE: 28.17 u/L
  ALBUMIN: 3.78 G/DL
  ALKALINE PHOSPHATASE: 385.33 u/L
  ASPARTATE AMINOTRANSFERASE: 78 u/L
  BLOOD UREA NITROGEN: 16.83 mg/dL
  CARBON DIOXIDE: 26.67 mmol/L
  CHLORIDE: 106.83 MEQ/L
  CHOLESTEROL: 82.67 mg/dL
  CREATINE PHOSPHOKINASE: 225.5 u/L
  CREATININE: 0.27 mg/dL
  GLUCOSE: 179.5 mg/dL
  LACTATE DEHYDROGENASE: 98.33 u/L
  LIPASE: 14.67 u/L
  PHOSPHORUS: 12.28 mg/dL
  POTASSIUM: 7.03 MEQ/L
  SODIUM: 150.33 MEQ/L
  TOTAL BILIRUBIN: 0.38 mg/dL
  TOTAL PROTEIN: 6.45 G/DL
  URIC ACID: 1.6 mg/dL
[3]
  BASOPHIL: 0.52%
  EOSINOPHIL: 0.55%
  ERYTHROCYTE COUNT: 7.72 x10E6/uL
  HEMATOCRIT: 51.87%
  HEMOGLOBIN: 15.32 G/DL
  LEUKOCYTE COUNT: 16.2 x10E3/uL
  LYMPHOCYTE: 85.13%
  MEAN CORPUSCULAR HEMOGLOBIN: 19.85 pg
  MEAN CORPUSCULAR HEMOGLOBIN CONCENTRATION: 29.52 G/DL
  MEAN CORPUSCULAR VOLUME: 67.17 fL
  MONOCYTE: 1.7%
  NEUTROPHIL: 11.6%
  PLATELET COUNT: 1104.17 x10E3/uL
  ALANINE AMINOTRANSFERASE: 37 u/L
  ALBUMIN: 4.13 G/DL
  ALKALINE PHOSPHATASE: 342 u/L
  ASPARTATE AMINOTRANSFERASE: 71 u/L
  BLOOD UREA NITROGEN: 16.5 mg/dL
  CARBON DIOXIDE: 28.17 mmol/L
  CHLORIDE: 104 MEQ/L
  CHOLESTEROL: 70.67 mg/dL
  CREATINE PHOSPHOKINASE: 287.67 u/L
  CREATININE: 0.38 mg/dL
  GLUCOSE: 150.17 mg/dL
  LACTATE DEHYDROGENASE: 81.33 u/L
  LIPASE: 16 u/L
  PHOSPHORUS: 11.32 mg/dL
  POTASSIUM: 6.22 MEQ/L
  SODIUM: 147.33 MEQ/L
  TOTAL BILIRUBIN: 0.43 mg/dL
  TOTAL PROTEIN: 6.55 G/DL
  URIC ACID: 1.38 mg/dL
[4]
  BASOPHIL: 0.37%
  EOSINOPHIL: 0.2%
  ERYTHROCYTE COUNT: 7.37 x10E6/uL
  HEMATOCRIT: 47.5%
  HEMOGLOBIN: 15.37 G/DL
  LEUKOCYTE COUNT: 10.01 x10E3/uL
  LYMPHOCYTE: 77.97%
  MEAN CORPUSCULAR HEMOGLOBIN: 20.83 pg
  MEAN CORPUSCULAR HEMOGLOBIN CONCENTRATION: 32.37 G/DL
  MEAN CORPUSCULAR VOLUME: 64.47 fL
  MONOCYTE: 2.73%
  NEUTROPHIL: 18.23%
  PLATELET COUNT: 1486.67 x10E3/uL
  ALANINE AMINOTRANSFERASE: 47 u/L
  ALBUMIN: 3.73 G/DL
  ALKALINE PHOSPHATASE: 277.67 u/L
  ASPARTATE AMINOTRANSFERASE: 87.33 u/L
  BLOOD UREA NITROGEN: 12.67 mg/dL
  CARBON DIOXIDE: 30.67 mmol/L
  CHLORIDE: 103.33 MEQ/L
  CHOLESTEROL: 117.33 mg/dL
  CREATINE PHOSPHOKINASE: 390.33 u/L
  CREATININE: 0.53 mg/dL
  GLUCOSE: 176.33 mg/dL
  LACTATE DEHYDROGENASE: 159 u/L
  LIPASE: 27 u/L
  PHOSPHORUS: 11 mg/dL
  POTASSIUM: 5.6 MEQ/L
  SODIUM: 149 MEQ/L
  TOTAL BILIRUBIN: 0.27 mg/dL
  TOTAL PROTEIN: 6.37 G/DL
  URIC ACID: 1.23 mg/dL
[5]
  BASOPHIL: 0.23%
  EOSINOPHIL: 0.27%
  ERYTHROCYTE COUNT: 7.31 x10E6/uL
  HEMATOCRIT: 47.27%
  HEMOGLOBIN: 14.77 G/DL
  LEUKOCYTE COUNT: 10.16 x10E3/uL
  LYMPHOCYTE: 86.07%
  MEAN CORPUSCULAR HEMOGLOBIN: 20.17 pg
  MEAN CORPUSCULAR HEMOGLOBIN CONCENTRATION: 31.23 G/DL
  MEAN CORPUSCULAR VOLUME: 64.67 fL
  MONOCYTE: 2.77%
  NEUTROPHIL: 9.93%
  PLATELET COUNT: 1168.67 x10E3/uL
  ALANINE AMINOTRANSFERASE: 59.33 u/L
  ALBUMIN: 3.83 G/DL
  ALKALINE PHOSPHATASE: 274 u/L
  ASPARTATE AMINOTRANSFERASE: 91.33 u/L
  BLOOD UREA NITROGEN: 17.33 mg/dL
  CARBON DIOXIDE: 27.67 mmol/L
  CHLORIDE: 107 MEQ/L
  CHOLESTEROL: 112 mg/dL
  CREATINE PHOSPHOKINASE: 187.67 u/L
  CREATININE: 0.37 mg/dL
  GLUCOSE: 172.33 mg/dL
  LACTATE DEHYDROGENASE: 78 u/L
  LIPASE: 11.33 u/L
  PHOSPHORUS: 12.07 mg/dL
  POTASSIUM: 6.83 MEQ/L
  SODIUM: 152 MEQ/L
  TOTAL BILIRUBIN: 0.33 mg/dL
  TOTAL PROTEIN: 6.57 G/DL
  URIC ACID: 1.5 mg/dL
[6]
  BASOPHIL: 0.3%
  EOSINOPHIL: 0.38%
  ERYTHROCYTE COUNT: 8.11 x10E6/uL
  HEMATOCRIT: 55.22%
  HEMOGLOBIN: 16.28 G/DL
  LEUKOCYTE COUNT: 7.38 x10E3/uL
  LYMPHOCYTE: 78.4%
  MEAN CORPUSCULAR HEMOGLOBIN: 20.06 pg
  MEAN CORPUSCULAR HEMOGLOBIN CONCENTRATION: 29.48 G/DL
  MEAN CORPUSCULAR VOLUME: 68.1 fL
  MONOCYTE: 2.1%
  NEUTROPHIL: 18.48%
  PLATELET COUNT: 1123.2 x10E3/uL
  ALANINE AMINOTRANSFERASE: 84.2 u/L
  ALBUMIN: 4.12 G/DL
  ALKALINE PHOSPHATASE: 230.4 u/L
  ASPARTATE AMINOTRANSFERASE: 95.6 u/L
  BLOOD UREA NITROGEN: 15.2 mg/dL
  CARBON DIOXIDE: 30.6 mmol/L
  CHLORIDE: 104 MEQ/L
  CHOLESTEROL: 129.2 mg/dL
  CREATINE PHOSPHOKINASE: 256 u/L
  CREATININE: 0.54 mg/dL
  GLUCOSE: 144.8 mg/dL
  LACTATE DEHYDROGENASE: 59 u/L
  LIPASE: 22.2 u/L
  PHOSPHORUS: 11.14 mg/dL
  POTASSIUM: 6.2 MEQ/L
  SODIUM: 149.8 MEQ/L
  TOTAL BILIRUBIN: 0.42 mg/dL
  TOTAL PROTEIN: 6.66 G/DL
  URIC ACID: 1.5 mg/dL
